What was measured:
[1] = indocyanine green clearance; format: in vivo, human; conditions: HIV-patients, before and 6 months after initiation of HAART
[2] = test system: cytochrome p450 3A4 (CYP3A4); assay: monoethylglycinexylidide; format: in vivo, human

In the case of `CC1(C)C(/C=C/C=C/C=C/C=C2\N(CCCCS(=O)(=O)O)c3ccc4ccccc4c3C2(C)C)=[N+](CCCCS(=O)(=O)[O-])c2ccc3ccccc3c21` [indocyanine green], the “indocyanine green clearance in relation to anti-retroviral regimens” value [1] is reported as “no correlation could be found”.
For `CCNCC(=O)Nc1c(C)cccc1C` [MEGX, monoethylglycinexylidide], the MEGX test ([2]; HIV-patients treated with various ART combinations, p = 0.23 vs healthy controls) was 49.9 ± 25.48 µg/L and the MEGX test ([2]; healthy controls without medication) was 66.29 ± 38.55 µg/L.
